Like-named read-outs stand apart in the source and are kept apart here.
Test: Pharmacokinetic study of rivaroxaban in rats, alone and with ribociclib (UPLC-MS/MS plasma levels)
Type: in vivo, Sprague-Dawley rats
Conditions: for CL/F: read-out: CLz/F (converted); for MRT inf: read-out: MRT0- ∞; for MRT last: read-out: MRT0-t; for Vd/F: read-out: Vz/F
Experimental: Experimental animals were randomly divided into nine groups (n = 6, Table 1). Ribociclib was suspended in methylcellulose (MC), rivaroxaban was prepared in hydroxypropyl methylcellulose (HPMC), and apixaban was suspended in 5% DMSO in water. To achieve steady-state blood concentrations, a drug typically requires five to seven half-lives. Based on this principle, ribociclib was administered orally for eight consecutive days, while rivaroxaban and apixaban were administered orally for five consecutive days to ensure steady-state concentrations were reached before further analysis.
Approximately 0.1 mL of blood was collected into heparinized tubes via the orbitalat specified time points before and after the final drug administration. For apixaban, blood samples were collected at 0, 0.083, 0.167, 0.25, 0.333, 0.5, 0.75, 1, 3, 5, 7, 10, and 12 h. For rivaroxaban, sampling was conducted at 0, 0.167, 0.333, 0.5, 0.75, 1.5, 2, 3, 4, 5, 6, 8, 10, 12, and 24 h. For ribociclib, samples were taken at 0, 0.5, 1, 2, 4, 5, 6, 8, 10, 12, 24, and 48 h. Blood samples were centrifuged at 3,500 rpm for 10 min, and the supernatant was collected and stored at −80°C until processing for UPLC-MS/MS.
Apixaban and rivaroxaban concentrations in plasma samples were determined using our previously established UPLC-MS/MS method ([Wang et al., 2023]). Ribociclib concentrations were quantified using an LC-30A UPLC system (Shimadzu, Kyoto, Japan) coupled with a Sciex Triple Quad 5500 tandem quadrupole mass spectrometer (AB Sciex, Framingham, MA, United States) equipped with an electrospray ionization interface. Chromatographic separation was performed using a Welch Boltimate column (2.1 mm × 100 mm, 2.7 μm) maintained at 40°C. The mobile phase was composed of water containing 0.1% formic acid (phase A) and acetonitrile (phase B). The flow rate was held constant at 0.3 mL/min. The gradient elution protocol was as follows: 0–2.5 min, 60% B; 2.5–3.5 min, 60%–90% B; 3.5–5.5 min, 90% B; 5.5–5.6 min, 90%–60% B; 5.6–6.6 min, 60% B. The injection volume was 1 μL.
Pharmacokinetic parameters were calculated based on a non-compartmental model using DAS 2.1.1 Software (Mathematical Pharmacology Professional Committee of China, Shanghai, China). The area under the concentration–time curve (AUC), maximum plasma concentration (Cmax), time to maximum plasma concentration (Tmax), the time required to eliminate half of the plasma drug concentration (t1/2), clearance of drug plasma volume per unit time (CLz/F), apparent volume distribution (Vz/F), mean residence time (MRT) and the absorption rate constant (Ka) are all expressed as mean ± standard deviation (SD). SPSS 25.0 statistical software (SPSS Inc., Chicago, IL, United States) was applied to statistically analyze the mainpharmacokinetic parameters. Shapiro-Wilk test was used to assess whether the data were normally distributed, t test was used for parameters conforming to the normal distribution, and Mann-Whitney U test was used for parameters not conforming to the normal distribution. Statistical comparisons were conducted using a analysis of variance, t-test or nonparametric rank-sum test depending on the data type. A P-value <0.05 was deemed statistically significant.

[1] = RIVA 1 mg/kg + multiple doses of RIBO vs RIVA 2 mg/kg alone
[2] = RIVA 2 mg/kg (normal dose) + multiple doses of RIBO vs alone
[3] = RIVA 2 mg/kg + timed RIBO (12 h), RIBO 60 mg/kg for 8 days
[4] = RIVA 2 mg/kg after multiple doses of RIBO vs RIVA 2 mg/kg alone
[5] = RIVA 2 mg/kg with 12-h interval to RIBO vs RIVA 2 mg/kg alone
[6] = Sprague-Dawley, rat, plasma, po, 1 mg/kg, RIVA 1 mg/kg + RIBO 60 mg/kg for 8 days
[7] = Sprague-Dawley, rat, plasma, po, 2 mg/kg, RIVA 2 mg/kg + RIBO 60 mg/kg for 8 days
[8] = Sprague-Dawley, rat, plasma, po, 2 mg/kg, RIVA 2 mg/kg + timed RIBO (12 h), RIBO 60 mg/kg for 8 days
[9] = Sprague-Dawley, rat, plasma, po, 2 mg/kg, oral RIVA 2 mg/kg alone

## O=C(NC[C@H]1CN(c2ccc(N3CCOCC3=O)cc2)C(=O)O1)c1ccc(Cl)s1 [RIVA, rivaroxaban]
[1]
  decrease of CLz/F: 70.97%
  decrease of Vz/F: 78.29%
  difference in MRT0- ∞: not statistically significant
  difference in Tmax: not statistically significant
  increase of AUC0- ∞: 228.46%
  increase of AUC0-t: 230.62%
  increase of Cmax: 133.14%
  increase of MRT0-t: 30.06%
[2]
  increase of AUC0- ∞: ~2.1 fold
  increase of AUC0-t (AUC): about 2.4 fold
  increase of Cmax: 1.9 fold
RIVA 2 mg/kg + RIBO 60 mg/kg for 8 days
  Cmax: 838.33 ± 480.92 ng/mL
[3]
  AUC0- ∞: 2,217.15 ± 800.81 μg/L*h
  Cmax: 454.5 ± 214.88 ng/mL
  Vz/F: 3.72 ± 1.98 L/kg
  t1/2: 2.65 ± 1.48 h
[4]
  decrease of CLz/F: 65.81%
  decrease of Vz/F: 82.91%
  decrease of t1/2z: 57.09%
  difference in MRT0- ∞: not statistically significant
  difference in Tmax: not statistically significant
  increase of AUC0- ∞: 213.79%
  increase of AUC0-t: 240.19%
  increase of Cmax: 186.93%
  increase of MRT0-t: 21.39%
[5]
  decrease of CLz/F: 34.84%
  decrease of Vz/F: 62.61%
  difference in Cmax: not statistically significant
  difference in MRT0- ∞: not statistically significant
  difference in Tmax: not statistically significant
  increase of AUC0- ∞: 63.03%
  increase of AUC0-t: 74.16%
  increase of MRT0-t: 22.54%
Sprague-Dawley, rat, plasma, oral RIVA 2 mg/kg alone, read-out: Cmax
  Cmax: 292 ± 67.5 ng/mL
[6]
  AUC(0-inf): 4470 ng·h/mL
  AUC(0-t): 3990 ± 445 ng·h/mL
  Tmax: 1.92 ± 0.2 h
  half-life: 3.34 ± 0.79 h
  CL/F: 7.5 mL/min/kg
  MRT inf: 5.84 ± 0.81 h
  MRT last: 4.5 ± 0.25 h
  Vd/F: 2.16 ± 0.04 L/kg
[7]
  AUC(0-inf): 4270 ng·h/mL
  AUC(0-t): 4100 ng·h/mL
  Tmax: 2.83 ± 0.41 h
  half-life: 2.15 ± 0.94 h
  CL/F: 8.83 mL/min/kg
  MRT inf: 4.74 ± 0.63 h
  MRT last: 4.2 ± 0.63 h
  Vd/F: 1.7 ± 0.99 L/kg
[8]
  AUC(0-t): 2100 ng·h/mL
  Tmax: 3 ± 0.63 h
  CL/F: 16.8 mL/min/kg
  MRT inf: 4.93 ± 1.3 h
  MRT last: 4.24 ± 0.69 h
[9]
  AUC(0-inf): 1360 ng·h/mL
  AUC(0-t): 1210 ng·h/mL
  Tmax: 2.13 ± 0.83 h
  half-life: 5.01 ± 3.3 h
  CL/F: 25.8 mL/min/kg
  MRT last: 3.46 ± 0.43 h
  Vd/F: 9.95 ± 4.58 L/kg
Sprague-Dawley, rat, plasma, po, RIVA 1 mg/kg + RIBO 60 mg/kg for 8 days, read-out: Cmax
  Cmax: 681 ± 75.5 ng/mL
Both with multiple doses of RIBO
  AUC at 1 mg/kg versus AUC at 2 mg/kg: not significantly different
Oral RIVA 2 mg/kg alone
  MRT0- ∞: 5.31 ± 2.01 h
Reduced RIVA 1 mg/kg + multiple doses of RIBO
  increase of Cmax: 1.3 fold
